Test results published in patent US20240116985A1, “STAPLED PEPTIDES AND METHODS THEREOF” (priority 2020, published 2024).
pIC50: −log10 of the molar value.

Key:
[1] = target: T1, beta-catenin/TCF4 engagement (Homo sapiens, UniProt P35222); experiment: Nano-BRET target engagement assay (B-cat-Halo & TCF4-Luc in HEK293 cells); assay type: cell-based; settings: absolute IC50; read-out: NanoBRET Abs IC50
T1 construct: expressed in transfected cells; host or cells: HEK293
T1 sequence (P35222 1-781): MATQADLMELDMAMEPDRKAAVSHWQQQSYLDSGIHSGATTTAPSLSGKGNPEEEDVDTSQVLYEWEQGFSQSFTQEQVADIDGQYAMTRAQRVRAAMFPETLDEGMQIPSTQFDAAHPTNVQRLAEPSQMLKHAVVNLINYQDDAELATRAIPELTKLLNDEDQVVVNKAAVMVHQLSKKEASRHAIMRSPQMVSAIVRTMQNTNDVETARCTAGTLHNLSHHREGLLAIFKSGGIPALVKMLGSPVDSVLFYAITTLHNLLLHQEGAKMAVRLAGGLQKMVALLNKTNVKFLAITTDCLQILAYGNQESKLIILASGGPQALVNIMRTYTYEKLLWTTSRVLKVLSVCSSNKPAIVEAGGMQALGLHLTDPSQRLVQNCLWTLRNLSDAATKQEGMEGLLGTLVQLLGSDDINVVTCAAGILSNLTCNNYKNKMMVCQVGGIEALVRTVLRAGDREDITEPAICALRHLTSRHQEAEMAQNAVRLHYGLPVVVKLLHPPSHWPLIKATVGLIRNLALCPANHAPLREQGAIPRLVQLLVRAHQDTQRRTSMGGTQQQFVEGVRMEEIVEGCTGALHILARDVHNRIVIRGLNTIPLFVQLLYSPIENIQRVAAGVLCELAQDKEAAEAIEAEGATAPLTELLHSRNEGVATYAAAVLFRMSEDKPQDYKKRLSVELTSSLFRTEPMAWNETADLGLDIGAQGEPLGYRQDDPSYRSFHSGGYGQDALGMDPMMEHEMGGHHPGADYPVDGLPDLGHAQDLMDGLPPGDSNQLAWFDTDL

[2] = target: T2, full-length beta-Catenin (Uniprot ID P35222) (Homo sapiens, UniProt P35222); experiment: Fluorescence polarization IC50 (beta-catenin / 5FAM-TCF4 10-53 competition); assay type: binding; settings: fluorescence polarization; read-out: beta-Catenin FP IC50
T2 construct: 10 nM full-length beta-Catenin (Uniprot ID P35222)
T2 sequence (P35222 1-781): T1 sequence (P35222 1-781)

| SMILES | pIC50 [1] | pIC50 [2] |
| --- | --- | --- |
| CC(=O)N1CCC[C@]12CC=CCCCC1(CCCC=CCCCOC(=O)N3CC[C@@](C(=O)N[C@@H](Cc4ccsc4)C(=O)N[C@H](C(=O)N[C@@H](C)C(N)=O)[C@@H](C)c4ccc5ccccc5c4)(C3)NC(=O)[C@H](C(C)C)NC(=O)[C@H](Cc3ccccc3)NC(=O)[C@H](C)NC(=O)[C@H](CCC(N)=O)NC(=O)[C@H](Cc3cccc(C(=O)O)c3)NC(=O)[C@H](CC(=O)O)NC1=O)NC(=O)[C@H](CC(C)(C)C)NC(=O)[C@H](CC(=O)O)NC2=O (stereo partly drawn) [I-2314, Ac-PL3-Asp-Npg-B5-Asp-3COOHF-Gln-Ala-Phe-Val-PyrS2-3Thi-SbMe2NapA-Ala-NH2] | < 4.70 | 7.32 |
| CC(=O)N1CCC[C@]12CC=CCCCC1(CCCC=CCCCOC(=O)N3CC[C@@](C(=O)N[C@@H](Cc4ccccc4C(F)(F)F)C(=O)N[C@@H](Cc4csc5ccccc45)C(=O)N[C@@H](C)C(N)=O)(C3)NC(=O)[C@H](CC(C)C)NC(=O)[C@H](Cc3ccccc3)NC(=O)[C@H](C)NC(=O)[C@H](CCC(=O)N3CCC(N4CCCCC4)CC3)NC(=O)[C@H](Cc3cccc(C(=O)O)c3)NC(=O)[C@H](CC(=O)O)NC1=O)NC(=O)[C@H](CC(C)(C)C)NC(=O)[C@H](CC(=O)O)NC2=O (stereo partly drawn) [I-2317, Ac-PL3-Asp-Npg-B5-Asp-3COOHF-[4Pippip]GlnR-Ala-Phe-Leu-PyrS2-2F3MeF-BztA-Ala-NH2] | 4.73 | 7.92 |
| CCS(=O)(=O)N1CCN(C(=O)CC[C@@H]2NC(=O)[C@H](Cc3cccc(C(=O)O)c3)NC(=O)[C@H](CC(=O)O)NC(=O)C3(CCCC=CCCCOC(=O)N4CC[C@@](C(=O)N[C@@H](Cc5ccccc5C(F)(F)F)C(=O)N[C@@H](Cc5csc6ccccc56)C(=O)N[C@@H](C)C(N)=O)(C4)NC(=O)[C@H](CC(C)C)NC(=O)[C@H](Cc4ccccc4)NC(=O)[C@H](C)NC2=O)CCCC=CC[C@]2(CCCN2C(C)=O)C(=O)N[C@@H](CC(=O)O)C(=O)N[C@@H](CC(C)(C)C)C(=O)N3)CC1 (stereo partly drawn) [I-2321, Ac-PL3-Asp-Npg-B5-Asp-3COOHF-[EtSO2Ppz]GlnR-Ala-Phe-Leu-PyrS2-2F3MeF-BztA-Ala-NH2] | 5.77 | 8.30 |

More lines, now with the values ahead:

| pIC50 [1] | pIC50 [2] | SMILES |
| --- | --- | --- |
| 4.75 | 8.22 | CC(=O)N1CCC[C@]12CC=CCCCC1(CCCC=CCCCOC(=O)N3CC[C@@](C(=O)N[C@@H](Cc4ccccc4C(F)(F)F)C(=O)N[C@@H](Cc4csc5ccccc45)C(=O)N[C@@H](C)C(N)=O)(C3)NC(=O)[C@H](CC(C)C)NC(=O)[C@H](Cc3ccccc3)NC(=O)[C@H](C)NC(=O)[C@H](CCC(=O)N3CCN(CCCN(C)C)CC3)NC(=O)[C@H](Cc3cccc(C(=O)O)c3)NC(=O)[C@H](CC(=O)O)NC1=O)NC(=O)[C@H](CC(C)(C)C)NC(=O)[C@H](CC(=O)O)NC2=O (stereo partly drawn) [I-2323, Ac-PL3-Asp-Npg-B5-Asp-3COOHF-[Me2NPrPip]GlnR-Ala-Phe-Leu-PyrS2-2F3MeF-BztA-Ala-NH2] |
| < 4.70 | 6.77 | CC(=O)N1CC2CC1C(=O)N[C@@H](CC(=O)O)C(=O)N[C@@H](CC(C)(C)C)C(=O)NC1(CCCCCCCCOC(=O)N3CC[C@@](C(=O)N[C@@H](Cc4ccsc4)C(=O)N[C@@H](Cc4csc5ccccc45)C(=O)N[C@@H](CCC(N)=O)C(N)=O)(C3)NC(=O)[C@H](CC(C)C)NC(=O)[C@H](Cc3ccccc3)NC(=O)[C@H](C)NC(=O)[C@H](C)NC(=O)[C@H](CN(CC(=O)O)CC(F)(F)F)NC(=O)[C@H](CC(=O)O)NC1=O)CCCCCCOc1cccc(c1)C(=O)O2 (stereo partly drawn) [I-2328, Ac-HypBzEs3OAllyl-Asp-Npg-B5-Asp-TfeGA-Ala-Ala-Phe-Leu-PyrS2-3Thi-BztA-Gln-NH2] |
| 4.84 | 7.72 | CC(=O)N1CCC[C@]12CC=CCCCC1(CCCC=CCCCOC(=O)N3CC[C@@](C(=O)N[C@@H](Cc4ccsc4)C(=O)N[C@@H](Cc4csc5ccccc45)C(=O)N[C@@H](CCC(N)=O)C(N)=O)(C3)NC(=O)[C@H]([C@@H](C)O)NC(=O)[C@H](Cc3ccccc3)NC(=O)[C@H](C)NC(=O)[C@H](C)NC(=O)[C@H](Cc3cccc(C(=O)O)c3)NC(=O)[C@H](CC(N)=O)NC1=O)NC(=O)[C@H](CC(C)(C)C)NC(=O)[C@H](CC(=O)O)NC2=O (stereo partly drawn) [I-2336, Ac-PL3-Asp-Npg-B5-Asn-3COOHF-Ala-Ala-Phe-Thr-PyrS2-3Thi-BztA-Gln-NH2] |
